According to patent US9428496B2, “Thiazolamine derivative and use thereof as anti-picornaviral infection medicament” (Institute of Pharmacology and Toxicology Academy of …, priority 2010, dated 2016):
≈ marks a conversion by molar mass, not a printed value. Where two headings read alike, the source gives them in different places.

Tests used:
enterovirus Cox A16 = test: microbe, parasite or virus in culture; format: cell-based; details: for CoxA16 SI: CoxA16, Vero cells; for IC50: Enterovirus, read-out: CoxA16 IC50
Experimental: (§1) Anti-picornaviral activity of the compounds of the present invention in in vitro model Test item: activity screening of compounds against enteroviruses EV71 and Cox A16 Test principle: using Vero cells as virus host, the cytopathic effect of Vero cells induced by the inhibition of compounds against enteroviruses EV71 and Cox A16 was measured.
(§2) 1. Virus strains: enteroviruses EV71 (Shenzhen 98) and Cox A16, passaging in the laboratory.
(§3) Test Method: Vero cells were incubated in a 96-well culture plate. After 24 hours, they were infected with EV71 and Cox A16 by adsorption for 2 hours. After discarding the virus solution, maintenance solutions containing different concentrations of samples and positive controls were added, and, at the same time, cell control wells and virus control wells were set. […] The half inhibitory concentrations (IC50) of the samples against EV71 and Cox A16 were respectively calculated according to the Reed-Muench method.

[1] = tested on: enterovirus EV71 (Shenzhen 98); test: Inhibition of cytopathic effect (CPE) induced by EV71 in Vero cells; format: cell-based; details: for EV71 IC50 / IC50: CPE in Vero cells, Reed-Muench method; for EV71 SI: EV71, Vero cells
Experimental: as §1, §2, §3

Vero cells = test: Toxicity of compounds to the Vero host cells (TC50, TC0); format: cell-based
[2] = CPE in Vero cells, Reed-Muench method

Compound | CoxA16 IC50 (enterovirus Cox A16; [2]) | CoxA16 SI (enterovirus Cox A16) | EV71 IC50 [1] | TC0 (Vero cells; Vero cells) | TC50 (Vero cells; Vero cells) | EV71 SI [1] | TC0 (Vero cells) | TC50 (Vero cells) | IC50 (enterovirus Cox A16; Vero) | IC50 [1] | IC50 (enterovirus Cox A16; [2]) | melting point
2-{4-[5-(4-tert-butylphenoxy)pentyl]piperazin-1-yl}thiazole [Example 13] | 7.87 µg/mL | 3.2 | >12.5 µg/mL | 12.5 µg/mL | 25.0 µg/mL |  |  |  |  |  |  | 
2-{4-[5-(4-tert-butylphenoxy)pentyl]piperazin-1-yl}thiazole [Example 16] | 4.30 µg/mL | 5.8 | >12.5 µg/mL | 12.5 µg/mL | 25.0 µg/mL |  |  |  |  |  |  | 
2-{4-[5-(4-tert-butylphenoxy)pentyl]piperazin-1-yl}thiazole hydrochloride [Example 22] | 6.25 µg/mL | 4.0 | 1.97 µg/mL |  |  | 12.7 | 12.5 µg/mL | 25.0 µg/mL |  |  |  | 
5-{4-[3-(4′-ethoxybiphenyl-4-oxy)pentyl]piperazin-1-yl}thiazole [Example 15] | 100 µg/mL | >2.0 | >200.0 µg/mL |  |  |  | >200.0 µg/mL | >200.0 µg/mL |  |  |  | 
NC(=O)c1ncn([C@@H]2O[C@H](CO)[C@@H](O)[C@H]2O)n1 [Con, ribavirin, reference compound] |  |  |  | 500.0 µg/mL | 2000 µg/mL (≈ 8190 µM) |  |  |  | 363 µg/mL (≈ 1490 µM) | 517 µg/mL (≈ 2120 µM) |  | 
COc1ccc(OCCCCCN2CCN(c3nccs3)CC2)cc1 [Example 1, 2-{4-[5-(4-methoxyphenoxy)pentyl]piperazin-1-yl}thiazole] |  | 4.0 |  | 50.0 µg/mL | 100.0 µg/mL (≈ 277 µM) | 2.8 |  |  |  | 36.3 µg/mL (≈ 100 µM) | 25 µg/mL (≈ 69.2 µM) | 83 to 85 °C
CCOc1ccc(OCCCCCN2CCN(c3nccs3)CC2)cc1 [Example 2, 2-{4-[5-(4-ethoxyphenoxy)pentyl]piperazin-1-yl}thiazole] |  | 12.7 |  | 12.5 µg/mL | 25.0 µg/mL (≈ 66.6 µM) | 3.2 |  |  |  | 7.87 µg/mL (≈ 21 µM) | 1.97 µg/mL (≈ 5.25 µM) | 79 to 81 °C
Fc1ccc(OCCCCCN2CCN(c3nccs3)CC2)cc1 [Example 3, 2-{4-[5-(4-fluorophenoxy)pentyl]piperazin-1-yl}thiazole] |  |  |  | 12.5 µg/mL | 79.37 µg/mL (≈ 227 µM) |  |  |  |  | > 12.5 µg/mL | > 12.5 µg/mL | 42 to 44 °C
CCc1ccc(OCCCCCN2CCN(c3nccs3)CC2)cc1 [Example 4, 2-{4-[5-(4-ethylphenoxy)pentyl]piperazin-1-yl}thiazole] |  | 6.3 |  | 3.13 µg/mL | 12.5 µg/mL (≈ 34.8 µM) |  |  |  |  | > 3.13 µg/mL | 1.97 µg/mL (≈ 5.48 µM) | 125 to 127 °C
CC(C)c1ccc(OCCCCCN2CCN(c3nccs3)CC2)cc1 [Example 5, 2-{4-[5-(4-isopropylphenoxy)pentyl]piperazin-1-yl}thiazole] |  | 4.0 |  | 3.13 µg/mL | 6.25 µg/mL (≈ 16.7 µM) |  |  |  |  | > 3.13 µg/mL | 1.57 µg/mL (≈ 4.2 µM) | 128 to 130 °C
CC(C)(C)c1ccc(OCCCCCN2CCN(c3nccs3)CC2)cc1 [Example 6, 2-{4-[5-(4-tert-butylphenoxy)pentyl]piperazin-1-yl}thiazole] |  | 4.0 |  | 3.13 µg/mL | 6.25 µg/mL (≈ 16.1 µM) |  |  |  |  | > 3.13 µg/mL | 1.57 µg/mL (≈ 4.05 µM) | 125 to 127 °C
Cc1ccc(OCCCCCN2CCN(c3nccs3)CC2)cc1 [Example 7, 2-{4-[5-(4-methylphenoxy)pentyl]piperazin-1-yl}thiazole] |  |  |  | 3.13 µg/mL | 19.84 µg/mL (≈ 57.4 µM) |  |  |  |  | > 3.13 µg/mL | > 3.13 µg/mL | 125 to 127 °C
Cc1ccc(OCCCCCCN2CCN(c3nccs3)CC2)cc1 [Example 8, 2-{4-[6-(4-methylphenoxy)hexyl]piperazin-1-yl}thiazole] |  | 5.0 |  | 12.5 µg/mL | 25.0 µg/mL (≈ 69.5 µM) |  |  |  |  | > 12.5 µg/mL | 4.96 µg/mL (≈ 13.8 µM) | 37 to 39 °C
CCc1ccc(OCCCCCCN2CCN(c3nccs3)CC2)cc1 [Example 9, 2-{4-[6-(4-ethylphenoxy)hexyl]piperazin-1-yl}thiazole] |  | 2.0 |  | 3.13 µg/mL | 6.25 µg/mL (≈ 16.7 µM) | 3.2 |  |  |  | 1.97 µg/mL (≈ 5.27 µM) | 3.13 µg/mL (≈ 8.38 µM) | 21 to 23 °C
c1ccc(OCCCCCCN2CCN(c3nccs3)CC2)cc1 [Example 10, 2-[4-(6-phenoxyhexyl)piperazin-1-yl]thiazole] |  | 2.0 |  | 12.5 µg/mL | 25.0 µg/mL (≈ 72.4 µM) |  |  |  |  | > 12.5 µg/mL | 12.5 µg/mL (≈ 36.2 µM) | 37 to 39 °C
CC(C)(C)c1ccc(OCCCCCCN2CCN(c3nccs3)CC2)cc1 [Example 11, 2-{4-[6-(4-tert-butylphenoxy)hexyl]piperazin-1-yl}thiazole] |  | 2.0 |  | 3.13 µg/mL | 6.25 µg/mL (≈ 15.6 µM) | 4.0 |  |  |  | 1.57 µg/mL (≈ 3.91 µM) | 3.13 µg/mL (≈ 7.79 µM) | 30 to 32 °C
Fc1ccc(OCCCCCCN2CCN(c3nccs3)CC2)cc1 [Example 12, 2-{4-[6-(4-fluorophenoxy)hexyl]piperazin-1-yl}thiazole] |  |  |  | 12.5 µg/mL | 25.0 µg/mL (≈ 68.8 µM) |  |  |  |  | > 12.5 µg/mL | > 12.5 µg/mL | 58 to 60 °C
Brc1ccc(OCCCCCCN2CCN(c3nccs3)CC2)cc1 [Example 14, 2-{4-[6-(4-bromophenoxy)hexyl]piperazin-1-yl}thiazole] |  | 5.0 |  | 12.5 µg/mL | 31.5 µg/mL (≈ 74.2 µM) |  |  |  |  | > 12.5 µg/mL | 6.25 µg/mL (≈ 14.7 µM) | 66 to 68 °C
Brc1ccc(OCCCCCN2CCN(c3nccs3)CC2)cc1 [Example 17, 2-{4-[5-(4-bromophenoxy)pentyl]piperazin-1-yl}thiazole] |  |  |  | 0.78 µg/mL | 4.96 µg/mL (≈ 12.1 µM) |  |  |  |  | > 0.78 µg/mL | > 0.78 µg/mL | 73 to 75 °C
Brc1ccc(OCCCCCN2CCN(c3nccs3)CC2)cc1.Cl [Example 18, 2-{4-[5-(4-bromophenoxy)pentyl]piperazin-1-yl}thiazole hydrochloride] |  |  |  | 0.78 µg/mL | 4.96 µg/mL |  |  |  |  | > 0.78 µg/mL | > 0.78 µg/mL | 221 to 223 °C
Cl.c1ccc(OCCCCCN2CCN(c3nccs3)CC2)cc1 [Example 19, 2-[4-(5-phenoxypentyl)piperazin-1-yl]thiazole hydrochloride] |  | 6.3 |  | 12.5 µg/mL | 79.37 µg/mL |  |  |  |  | > 12.5 µg/mL | 12.5 µg/mL | 145 to 147 °C
COc1ccc(OCCCCCCN2CCN(c3nccs3)CC2)cc1.Cl [Example 20, 2-{4-[6-(4-methoxyphenoxy)hexyl]piperazin-1-yl}thiazole hydrochloride] |  |  |  | 3.13 µg/mL | 63.0 µg/mL |  |  |  |  | > 3.13 µg/mL | > 3.13 µg/mL | 221 to 223 °C
CCOc1ccc(OCCCCCCN2CCN(c3nccs3)CC2)cc1.Cl [Example 21, 2-{4-[6-(4-ethoxyphenoxy)hexyl]piperazin-1-yl}thiazole hydrochloride] |  | 8.0 |  | 3.13 µg/mL | 25.0 µg/mL | 12.7 |  |  |  | 1.97 µg/mL | 3.13 µg/mL | 222 to 224 °C
